Assay [1] concerns Septoria tritici (SEPTTR; Mycosphaerella graminicola). Kind of assay: 1-day protectant (1DP) test vs. leaf blotch of wheat, fungicide applied 1 day before inoculation. It is filed as in vivo, Septoria tritici on wheat plants (variety Yuma). The conditions noted are these: Zymoseptoria tritici, read-out: % DC Obs (percent disease control observed). The procedure:
(§1) Evaluation of Curative and Protectant Activity of Fungicide Mixtures vs. Leaf Blotch of Wheat (Mycosphaerella graminicola; anamorph: Septoria tritici; Bayer code: SEPTTR)
(§2) Wheat plants (variety Yuma) were grown from seed in a greenhouse in plastic pots with a surface area of 27.5 square centimeters (cm2) containing 50% mineral soil/50% soil-less Metro mix, with 8-12 seedlings per pot. The plants were employed for testing when the first leaf was fully emerged, which typically took 7 to 8 days after planting. Test plants were inoculated with an aqueous spore suspension of Septoria tritici either 3 days prior to (3-day curative test; 3DC) or 1 day after fungicide treatments (1-day protectant test; 1DP). After inoculation the plants were kept at 100% relative humidity (one day in a dark dew chamber followed by two days in a lighted mist chamber) to permit spores to germinate and infect the leaf. The plants were then transferred to a greenhouse until disease symptoms were fully expressed.
(§3) Treatments consisted of fungicides, including a compound of Formula I, epoxiconazole, prothioconazole, azoxystrobin, pyraclostrobin, penthiopyrad, isopyrazam, bixafen, boscalid, chlorothalonil and isobutyric acid (3S,6S,7R,8R)-8-benzyl-3-[(3-isobutyryloxymethoxy-4-methoxypyridine-2-carbonyl)-amino]-6-methyl-4,9-dioxo-[1,5]dioxonan-7-yl ester (compound A), applied either individually or as two-way mixtures with a compound of Formula I. 1% of water solution of a compound with Formula I was used in the tests. Technical grades of other materials were dissolved in acetone to make stock solutions, which were then used to perform three-fold dilutions in acetone either for each individual fungicide component or for the two-way mixtures. Desired fungicide rates were obtained after mixing dilutions with nine volumes of water containing 110 parts per million (ppm) Triton X-100. Ten milliliter (mL) fungicide solutions were applied onto six pots of plants using an automated booth sprayer, which utilized two 6218-1/4 JAUPM spray nozzles operating at 20 pounds per square inch (psi) set at opposing angles to cover both leaf surfaces. All sprayed plants were allowed to air dry prior to further handling. Control plants were sprayed in the same manner with the solvent blank.
(§4) When disease reached 80 to 100% on the control plants, infection levels were assessed on treated plants visually and scored on a scale of 0 to 100 percent. Percentage of disease control was then calculated using the ratio of disease on treated plants relative to control plants.
(§5) Colby's equation was used to determine the fungicidal effects expected from the mixtures. (See Colby, S. R. Calculation of the synergistic and antagonistic response of herbicide combinations. Weeds 1967, 15, 20-22.)
(§6) The following equation was used to calculate the expected activity of mixtures containing two active ingredients, A and B:
(§7) A=observed efficacy of active component A at the same concentration as used in the mixture;
(§8) B=observed efficacy of active component B at the same concentration as used in the mixture.

The test system is the same in assay [2]. Kind of assay: 3-day curative (3DC) test vs. leaf blotch of wheat, inoculation 3 days before fungicide treatment. In kind it is in vivo, Septoria tritici on wheat plants (variety Yuma). The conditions noted are these: Zymoseptoria tritici, read-out: % DC Obs (percent disease control observed); for pest or weed control at 0.6 ppm: applied alone at 0.6 ppm; for pest or weed control at 1.8 ppm: applied alone at 1.8 ppm. The procedure: as §1, §2, §3, §4, §5, §6, §7, §8

The mark [3] stands for this setting: 1DP SEPTTR, applied alone at 0.6 ppm.
Setting [4] is: 1DP SEPTTR, applied alone at 1.8 ppm.

Each structure is given as a SMILES string.

In the case of `Fc1ccc([C@]2(Cn3cncn3)O[C@H]2c2ccccc2Cl)cc1` (racemic) [Epoxiconazole, rel-1-[[(2R,3S)-3-(2-chlorophenyl)-2-(4-fluorophenyl)oxiranyl]methyl]-1H-1,2,4-triazole], the pest or weed control at 0.0375 ppm in assay [1] (1DP SEPTTR, applied alone at 0.0375 ppm) turned out to be 15%. In addition, in assay [1] (1DP SEPTTR, applied alone at 0.125 ppm), the pest or weed control at 0.125 ppm came to 27%.

Turning to `CO/C=C(/C(=O)OC)c1ccccc1Oc1cc(Oc2ccccc2C#N)ncn1` [Azoxystrobin, methyl (αE)-2-[[6-(2-cyanophenoxy)-4-pyrimidinyl]oxy]-α-(methoxymethylene)benzeneacetate], the pest or weed control at 0.6 ppm in assay [1] (setting [3]) stood at 21%; in assay [2] (3DC SEPTTR), 22%. The figures for the pest or weed control at 1.8 ppm in assay [1] (setting [4]) and in assay [2] (3DC SEPTTR) were 32% and 59%, respectively.

On to `Cn1cc(C(=O)Nc2ccc(F)cc2-c2ccc(Cl)c(Cl)c2)c(C(F)F)n1` [Bixafen, N-(3′,4′-dichloro-5-fluoro[1,1′-biphenyl]-2-yl)-3-(difluoromethyl)-1-methyl-1H-pyrazole-4-carboxamide], for which, in assay [1], the pest or weed control at 0.6 ppm turned out to be 14% and the pest or weed control at 1.8 ppm worked out at 71%.

For the compound `O=C(Nc1ccccc1-c1ccc(Cl)cc1)c1cccnc1Cl` [Boscalid, 2-chloro-N-(4′-chloro[1,1′-biphenyl]-2-yl)-3-pyridinecarboxamide], the pest or weed control at 1.8 ppm in assay [1] (setting [4]) came to 9%; in assay [2] (3DC SEPTTR), 8%.

`N#Cc1c(Cl)c(Cl)c(Cl)c(C#N)c1Cl` [Chlorothalonil, 2,4,5,6-tetrachloro-1,3-benzenedicarbonitrile]: the pest or weed control at 13.5 ppm in assay [1] (1DP SEPTTR, applied alone at 13.5 ppm) was found to be 13%; in assay [2] (3DC SEPTTR, applied alone at 13.5 ppm), 0%. Besides, the pest or weed control at 42 ppm in assay [1] (1DP SEPTTR, applied alone at 42 ppm) was 8%; in assay [2] (3DC SEPTTR, applied alone at 42 ppm), 0%.

For the compound `COc1ccnc(C(=O)N[C@H]2COC(=O)[C@H](Cc3ccccc3)[C@@H](OC(=O)C(C)C)[C@H](C)OC2=O)c1OCOC(=O)C(C)C` [Compound A, Isobutyric acid (3S,6S,7R,8R)-8-benzyl-3-[(3-isobutyryloxymethoxy-4-methoxy-pyridine-2-carbonyl)-amino]-6-methyl-4,9-dioxo-[1,5]dioxonan-7-yl ester], in assay [2], the pest or weed control at 1.35 ppm worked out at 6%.

On to `Nc1nc(O)ncc1F` [Compound I, 5-FLUOROCYTOSINE], for which the pest or weed control at 0.03 ppm in assay [1] (1DP SEPTTR, applied alone at 0.03 ppm) was found to be 13%; in assay [2] (3DC SEPTTR, applied alone at 0.03 ppm), 4%. The pest or weed control at 0.1 ppm in assay [1] (1DP SEPTTR, applied alone at 0.1 ppm) is 11%; in assay [2] (3DC SEPTTR, applied alone at 0.1 ppm), 33%. Also, the pest or weed control at 0.3 ppm was 8% in assay [1] (1DP SEPTTR, applied alone at 0.3 ppm) and 67% in assay [2] (3DC SEPTTR, applied alone at 0.3 ppm). In addition, the pest or weed control at 0.9 ppm in assay [1] (1DP SEPTTR, applied alone at 0.9 ppm) stood at 18%; in assay [2] (3DC SEPTTR, applied alone at 0.9 ppm), 75%. Also, the pest or weed control at 2.8 ppm is 79% in assay [1] (1DP SEPTTR, applied alone at 2.8 ppm) and 94% in assay [2] (3DC SEPTTR, applied alone at 2.8 ppm).

Regarding `CC(C)C1C2CCC1c1c(NC(=O)c3cn(C)nc3C(F)F)cccc12` (stereo not drawn) [Isopyrazam, 3-(difluoromethyl)-1-methyl-N-[1,2,3,4-tetrahydro-9-(1-methylethyl)-1,4-methanonaphthalen-5-yl]-1H-pyrazole-4-carboxamide], in assay [1], the pest or weed control at 0.06 ppm was determined as 5%, the pest or weed control at 0.2 ppm was 9% and the pest or weed control at 0.6 ppm came out at 19%. In assay [2], the pest or weed control at 0.06 ppm turned out to be 22%.

On to `CC(C)CC(C)c1sccc1NC(=O)c1cn(C)nc1C(F)(F)F` (stereo not drawn) [Penthiopyrad, N-[2-(1,3-dimethylbutyl)-3-thienyl]-1-methyl-3-(trifluoromethyl)-1H-pyrazole-4-carboxamide], for which, in assay [1] (setting [3]), the pest or weed control at 0.6 ppm came to 7%. Further, the pest or weed control at 1.8 ppm in assay [1] (setting [4]) was 30%; in assay [2] (3DC SEPTTR) it was 24%.

`OC(Cc1ccccc1Cl)(Cn1[nH]cnc1=S)C1(Cl)CC1` (stereo not drawn) [Prothioconazole, 2-[2-(1-chlorocyclopropyl)-3-(2-chlorophenyl)-2-hydroxypropyl]-1,2-dihydro-3H-1,2,4-triazole-3-thione]: the pest or weed control at 0.6 ppm in assay [1] (setting [3]) was 18%; in assay [2] (3DC SEPTTR) it was 12%. The pest or weed control at 1.8 ppm in assay [1] (setting [4]) and in assay [2] (3DC SEPTTR) was 25% each time.

The record behind these values is patent publication US20110082162A1, “SYNERGISTIC FUNGICIDAL COMPOSITION CONTAINING 5-FLUOROCYTOSINE FOR FUNGAL CONTROL IN CEREALS” (DOW AGROSCIENCES LLC, priority 2009, published 2011).
